Values belong to the molecule of their own block, whether it stands above or below them.
Legend:
H-2K^b [1] = biological target: T1, H-2K^b (Mus musculus, UniProt P01901); experiment: MHC class I surface stabilization assay on RMA-S cells, H-2Kb; format: binding; details: RMA-S cells pulsed with peptide overnight, flow cytometry
T1 construct: surface stabilization assay using the TAP1 deficient cell line RMA-S; endogenous in cells; host or cells: RMA-S
T1 sequence (P01901 22-369): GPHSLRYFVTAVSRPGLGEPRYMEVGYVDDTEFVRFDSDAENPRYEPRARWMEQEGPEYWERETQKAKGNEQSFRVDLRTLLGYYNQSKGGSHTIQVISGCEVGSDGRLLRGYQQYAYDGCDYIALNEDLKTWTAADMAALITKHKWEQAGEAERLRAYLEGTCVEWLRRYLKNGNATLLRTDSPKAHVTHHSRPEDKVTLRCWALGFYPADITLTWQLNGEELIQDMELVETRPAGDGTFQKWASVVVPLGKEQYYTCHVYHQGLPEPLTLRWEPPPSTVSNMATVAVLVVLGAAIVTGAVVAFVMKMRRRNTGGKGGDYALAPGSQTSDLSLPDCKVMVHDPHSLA
T1 sequence (P01887 21-119 partner): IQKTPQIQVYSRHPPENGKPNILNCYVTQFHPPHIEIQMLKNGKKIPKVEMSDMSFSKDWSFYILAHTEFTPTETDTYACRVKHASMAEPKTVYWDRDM
Procedure: (§1) 10^6 RMA-S cells were incubated overnight at 37° C. with each of the five predicted at the concentrations indicated. Cells were stained with antibodies for H-2K^b (Y-3; ATCC-HB176) or H-2D^b (28-14-8S; ATCC-HB27) followed by a goat anti-mouse-FITC second step and MHC class I surface expression was analyzed by flow cytometry. Specific MFI is the mean fluorescent intensity of the sample-mean fluorescent intensity of goat anti-mouse-FITC second step alone. Error bars represent the standard deviation of triplicate measurements.
(§2) The binding affinity of the five predicted peptides was tested. In a surface stabilization assay using the TAP1 deficient cell line RMA-S. RMA-S cells were pulsed with peptide, at the indicated concentrations, and incubated overnight. Cells were stained with antibodies for H-2K^b (Y-3; ATCC-HB176) or H-2D^b (28-14-8S; ATCC-HB27) followed by a fluorescent-labeled secondary antibody and MHC class I surface expression was analyzed by flow cytometry.

AP-1 signaling = experiment: AP-1-dependent secreted alkaline phosphatase reporter in RAW cells; format: cell-based, murine; details: transient transfection, IFNγ or LPS stimulation
Procedure: (§3) Function of the mutant and wt SHP-1 constructs was tested in RAW cells by transient transfection of SHP-1 vectors along with a reporter construct expressing a secreted alkaline phosphatase driven by either an NFκB or AP-1 dependent promoter. NFκB and AP-1 are major transcription factors stimulated by toll-like receptor (TLR) and cytokine signaling in immune system cells, and represent likely pathways of SHP-1 inhibition on cellular activation. Cells were transfected with the appropriate construct, reporter and then stimulated with interferon-γ (IFNγ) or bacterial lipopolysaccharide (LPS) as ligands for cytokine and TLR receptors respectively.

NFκB signaling = experiment: NFκB-dependent secreted alkaline phosphatase reporter in RAW cells; format: cell-based, murine; details: transient transfection, IFNγ or LPS stimulation
Procedure: as §3

H-2D^b = biological target: T2, H-2D^b (mouse, UniProt P01887 21-119; P01899 25-309); experiment: RMA-S surface stabilization assay, flow cytometry of MHC class I surface expression
T2 construct: whole, on cells;extracellular; MHC class I on RMA-S cells, detected with antibody 28-14-8S (ATCC-HB27) in a surface stabilization assay; also called MHC class 1 molecule H-2D^b
T2 sequence (MHC heavy, looked up): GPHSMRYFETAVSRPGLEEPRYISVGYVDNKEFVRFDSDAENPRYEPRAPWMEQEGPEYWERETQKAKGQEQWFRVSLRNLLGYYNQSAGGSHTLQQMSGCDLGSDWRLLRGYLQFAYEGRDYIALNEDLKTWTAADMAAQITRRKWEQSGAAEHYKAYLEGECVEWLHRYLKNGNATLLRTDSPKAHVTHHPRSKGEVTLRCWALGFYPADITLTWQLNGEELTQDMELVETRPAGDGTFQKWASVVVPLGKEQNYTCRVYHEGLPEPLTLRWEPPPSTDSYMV
T2 sequence (b2m, looked up): T1 sequence (P01887 21-119 partner)
Procedure: as §1, with “10⁶” for “10^6”, “measurements. This is representative of 3 separate studies.” for “measurements.”
as §2, with “cytometry. […] STEAP₈₄₋₉₁ and STEAP₁₈₆₋₁₉₂ bound with an affinity near that of OVA₂₅₈₋₂₆₅, a well characterized strong binding H-2K^b epitope from chicken ovalbumin. […]” for “cytometry.”

H-2K^b [2] = biological target: T3, H-2K^b (mouse, UniProt P01887 21-119; P01901 22-305, limits assumed); experiment: RMA-S surface stabilization assay, flow cytometry with antibody Y-3; reference peptide
T3 construct: whole, on cells;extracellular; MHC class I on RMA-S cells, detected with antibody Y-3 (ATCC-HB176) in a surface stabilization assay; also called MHC class 1 molecule H-2K^b
T3 sequence (MHC heavy, looked up): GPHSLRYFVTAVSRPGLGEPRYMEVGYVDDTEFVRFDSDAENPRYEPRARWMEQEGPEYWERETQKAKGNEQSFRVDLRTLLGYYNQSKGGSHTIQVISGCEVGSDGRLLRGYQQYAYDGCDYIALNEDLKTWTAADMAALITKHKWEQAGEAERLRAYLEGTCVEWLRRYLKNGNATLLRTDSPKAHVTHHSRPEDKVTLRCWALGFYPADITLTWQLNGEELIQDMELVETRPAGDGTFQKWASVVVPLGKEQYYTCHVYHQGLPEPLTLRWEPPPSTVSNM
T3 sequence (b2m, looked up): T1 sequence (P01887 21-119 partner)
Procedure: In Table 1, OVA Kb binding peptide […] was used as control for a known good binder.
as §1, with “10⁶” for “10^6”, “measurements. This is representative of 3 separate studies.” for “measurements.”
as §2, with “cytometry. […] STEAP₈₄₋₉₁ and STEAP₁₈₆₋₁₉₂ bound with an affinity near that of OVA₂₅₈₋₂₆₅, a well characterized strong binding H-2K^b epitope from chicken ovalbumin. […]” for “cytometry.”

Molecule: LTFLYTLL [STEAP84-91]
relative binding affinity to H-2Kb (MHC class I surface expression) (H-2K^b [1]): bound with an affinity near that of OVA258-265

Molecule: RSYRYKLL [STEAP186-192]
relative binding affinity to H-2Kb (MHC class I surface expression) (H-2K^b [1]): bound with an affinity near that of OVA258-265

Molecule: dn-SHP-1: phosphatase dead dominant negative SHP-1 C453S mutant construct, HA-tagged (SEQ ID NO:8)
AP-1 signaling (AP-1 signaling): enhanced both NFκB and AP-1 signaling
NFκB signaling (NFκB signaling): enhanced both NFκB and AP-1 signaling

binding result (H-2D^b): no binding
Molecule: LLLGTVHAL (also called LLLGTVHAL) [STEAP262-270]

binding result (H-2K^b [2]): binds
Molecule: SIINFEKL (also called OVA peptide) [OVA258-265]
